Test system: T-47D spheroids with HUVEC/MSC, viability
Experiment: Anticancer human tumor T-47D cell line growth inhibition [PI3K];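 note: spheroids exposed to agents for seven days before reading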;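 for viability, T/C: percent of DMSO vehicle control luminescence so 100% = untreated growth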
Settings: for IC50: curve of first compound; for viability, T/C: stronger effect = lower value
In short: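 Three cell types, namely tumor cells, endothelial cells and mesenchymal stem cells, formed each spheroid. Combinations with four PI3K inhibitors were screened at clinically achievable concentrations decreasing by half-log, and spheroid viability was recorded.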

[1] = second compound 0.0316 µM, first compound 0.0316 µM
[2] = second compound 0.0316 µM, first compound 0.1 µM
[3] = second compound 0.1 µM, first compound 0.0316 µM
[4] = second compound 0.1 µM, first compound 0.1 µM
[5] = second compound 0.316 µM, first compound 0.0316 µM
[6] = second compound 0.316 µM, first compound 0.1 µM
[7] = second compound 1 µM, first compound 0.0316 µM
[8] = second compound 1 µM, first compound 0.1 µM
[9] = second compound 3.16 µM, first compound 0.0316 µM
[10] = second compound 3.16 µM, first compound 0.1 µM
[11] = second compound 10 µM, first compound 0.0316 µM
[12] = second compound 10 µM, first compound 0.1 µM

Question: With `Cn1ncc(Cl)c1-c1cc(C(=O)NC(CN)Cc2cccc(F)c2)sc1Cl` (centres undefined) + Cc1nc(NC(=O)N2CCCC2C(N)=O)sc1-c1ccnc(C(C)(C)C(F)(F)F)c1 as the molecule, how does the IC50 (second compound 0.0316 µM) read?
Answer: > 10000 nM

Question: And the IC50 (second compound 0.1 µM)?
Answer: > 10000 nM

Question: And the IC50 (second compound 0.316 µM)?
Answer: > 10000 nM

Question: What about the IC50 (second compound 1 µM) of the same molecule?
Answer: > 10000 nM

Question: And the IC50 (second compound 3.16 µM)?
Answer: > 10000 nM

Question: What about the IC50 (second compound 10 µM) of the same molecule?
Answer: < 31.6 nM

Question: And the viability, T/C [1]?
Answer: 107%

Question: What about the viability, T/C [2] of the same molecule?
Answer: 88.1%

Question: What about the viability, T/C (second compound 0.0316 µM, first compound 0.316 µM) of the same molecule?
Answer: 83.8%

Question: What about the viability, T/C (second compound 0.0316 µM, first compound 1 µM) of the same molecule?
Answer: 64.8%

Question: And the viability, T/C (second compound 0.0316 µM, first compound 3.16 µM)?
Answer: 64.9%

Question: And the viability, T/C (second compound 0.0316 µM, first compound 10 µM)?
Answer: 63.3%

Question: What about the viability, T/C [3] of the same molecule?
Answer: 88.8%

Question: What about the viability, T/C [4] of the same molecule?
Answer: 93.2%

Question: And the viability, T/C (second compound 0.1 µM, first compound 0.316 µM)?
Answer: 80.3%

Question: What about the viability, T/C (second compound 0.1 µM, first compound 1 µM) of the same molecule?
Answer: 60%

Question: And the viability, T/C (second compound 0.1 µM, first compound 3.16 µM)?
Answer: 55.8%

Question: What about the viability, T/C (second compound 0.1 µM, first compound 10 µM) of the same molecule?
Answer: 65.3%

Question: And the viability, T/C [5]?
Answer: 88.1%

Question: And the viability, T/C [6]?
Answer: 69.8%

Question: And the viability, T/C (second compound 0.316 µM, first compound 0.316 µM)?
Answer: 75%

Question: What about the viability, T/C (second compound 0.316 µM, first compound 1 µM) of the same molecule?
Answer: 57.8%

Question: And the viability, T/C (second compound 0.316 µM, first compound 3.16 µM)?
Answer: 60.7%

Question: And the viability, T/C (second compound 0.316 µM, first compound 10 µM)?
Answer: 66.8%

Question: What about the viability, T/C [7] of the same molecule?
Answer: 70%

Question: What about the viability, T/C [8] of the same molecule?
Answer: 75.9%

Question: What about the viability, T/C (second compound 1 µM, first compound 0.316 µM) of the same molecule?
Answer: 67.7%

Question: What about the viability, T/C (second compound 1 µM, first compound 1 µM) of the same molecule?
Answer: 53.9%

Question: What about the viability, T/C (second compound 1 µM, first compound 3.16 µM) of the same molecule?
Answer: 64.6%

Question: What about the viability, T/C (second compound 1 µM, first compound 10 µM) of the same molecule?
Answer: 65.3%

Question: What about the viability, T/C [9] of the same molecule?
Answer: 58.5%

Question: What about the viability, T/C [10] of the same molecule?
Answer: 59.4%

Question: And the viability, T/C (second compound 3.16 µM, first compound 0.316 µM)?
Answer: 48.9%

Question: What about the viability, T/C (second compound 3.16 µM, first compound 1 µM) of the same molecule?
Answer: 49.7%

Question: What about the viability, T/C (second compound 3.16 µM, first compound 3.16 µM) of the same molecule?
Answer: 43.9%

Question: What about the viability, T/C (second compound 3.16 µM, first compound 10 µM) of the same molecule?
Answer: 61.8%

Question: What about the viability, T/C [11] of the same molecule?
Answer: 35.1%

Question: And the viability, T/C [12]?
Answer: 30%

Question: And the viability, T/C (second compound 10 µM, first compound 0.316 µM)?
Answer: 33.3%

Question: And the viability, T/C (second compound 10 µM, first compound 1 µM)?
Answer: 32.1%

Question: What about the viability, T/C (second compound 10 µM, first compound 3.16 µM) of the same molecule?
Answer: 39.7%

Question: What about the viability, T/C (second compound 10 µM, first compound 10 µM) of the same molecule?
Answer: 50.5%

Question: With `CC(=O)c1c(C)c2cnc(Nc3ccc(N4CCNCC4)cn3)nc2n(C2CCCC2)c1=O` + CC(Nc1ncnc2nc[nH]c12)c1cc2cccc(Cl)c2c(=O)n1-c1ccccc1 as the molecule, how does the IC50 (second compound 0.0316 µM) read?
Answer: > 100 nM

Question: And the IC50 (second compound 0.1 µM)?
Answer: > 100 nM

Question: And the IC50 (second compound 0.316 µM)?
Answer: > 100 nM

Question: And the IC50 (second compound 1 µM)?
Answer: > 100 nM

Question: What about the IC50 (second compound 3.16 µM) of the same molecule?
Answer: > 100 nM

Question: What about the IC50 (second compound 10 µM) of the same molecule?
Answer: > 100 nM

Question: What about the viability, T/C (second compound 0.0316 µM, first compound 0.000316 µM) of the same molecule?
Answer: 96%

Question: What about the viability, T/C (second compound 0.0316 µM, first compound 0.001 µM) of the same molecule?
Answer: 99%

Question: And the viability, T/C (second compound 0.0316 µM, first compound 0.00316 µM)?
Answer: 100%

Question: And the viability, T/C (second compound 0.0316 µM, first compound 0.01 µM)?
Answer: 91.2%

Question: And the viability, T/C [1]?
Answer: 86.5%

Question: What about the viability, T/C [2] of the same molecule?
Answer: 71.3%

Question: And the viability, T/C (second compound 0.1 µM, first compound 0.000316 µM)?
Answer: 91.2%

Question: What about the viability, T/C (second compound 0.1 µM, first compound 0.001 µM) of the same molecule?
Answer: 90.2%

Question: What about the viability, T/C (second compound 0.1 µM, first compound 0.00316 µM) of the same molecule?
Answer: 96.1%

Question: And the viability, T/C (second compound 0.1 µM, first compound 0.01 µM)?
Answer: 73.3%

Question: And the viability, T/C [3]?
Answer: 100%

Question: What about the viability, T/C [4] of the same molecule?
Answer: 83.6%

Question: And the viability, T/C (second compound 0.316 µM, first compound 0.000316 µM)?
Answer: 92.8%

Question: What about the viability, T/C (second compound 0.316 µM, first compound 0.001 µM) of the same molecule?
Answer: 93.7%

Question: What about the viability, T/C (second compound 0.316 µM, first compound 0.00316 µM) of the same molecule?
Answer: 82%

Question: And the viability, T/C (second compound 0.316 µM, first compound 0.01 µM)?
Answer: 90.6%

Question: What about the viability, T/C [5] of the same molecule?
Answer: 86.9%

Question: What about the viability, T/C [6] of the same molecule?
Answer: 84%

Question: And the viability, T/C (second compound 1 µM, first compound 0.000316 µM)?
Answer: 80.1%

Question: What about the viability, T/C (second compound 1 µM, first compound 0.001 µM) of the same molecule?
Answer: 73.8%

Question: And the viability, T/C (second compound 1 µM, first compound 0.00316 µM)?
Answer: 79.6%

Question: And the viability, T/C (second compound 1 µM, first compound 0.01 µM)?
Answer: 89%

Question: What about the viability, T/C [7] of the same molecule?
Answer: 76.6%

Question: And the viability, T/C [8]?
Answer: 80.6%

Question: And the viability, T/C (second compound 3.16 µM, first compound 0.000316 µM)?
Answer: 81.2%

Question: And the viability, T/C (second compound 3.16 µM, first compound 0.001 µM)?
Answer: 88.6%

Question: What about the viability, T/C (second compound 3.16 µM, first compound 0.00316 µM) of the same molecule?
Answer: 100%

Question: And the viability, T/C (second compound 3.16 µM, first compound 0.01 µM)?
Answer: 85.1%

Question: And the viability, T/C [9]?
Answer: 85.8%

Question: What about the viability, T/C [10] of the same molecule?
Answer: 69.8%

Question: What about the viability, T/C (second compound 10 µM, first compound 0.000316 µM) of the same molecule?
Answer: 88.4%

Question: And the viability, T/C (second compound 10 µM, first compound 0.001 µM)?
Answer: 76.3%

Question: What about the viability, T/C (second compound 10 µM, first compound 0.00316 µM) of the same molecule?
Answer: 78%

Question: And the viability, T/C (second compound 10 µM, first compound 0.01 µM)?
Answer: 70.8%

Question: What about the viability, T/C [11] of the same molecule?
Answer: 80.6%

Question: And the viability, T/C [12]?
Answer: 65.2%
